Source: US20240358692A1, “TREATMENT OF SCLERODERMA” (Aisa Pharma, Inc., priority 2023, published 2024)

System: participants with SSc-RP
Assay: Frequency of weekly symptomatic RP attacks (patient diary), Phase 2a Part A
Assay type: in vivo, human
Conditions: ITT Part A
Description: Percent change from baseline evaluation for frequency of weekly RP attacks were or will be used as the primary efficacy variable. The sponsor-developed participant-informed diary will be used to record data. Frequency of weekly RP attacks is defined as the total number of RP attacks divided by the number of days with available diary data within the last 7 days of each dosing period then multiplied by 7. Total number of RP attacks during the last 7 days of screening period divided by the number of days with available data then multiplied by 7 will be used as baseline for the analysis of all periods. The variable will be calculated as follows: […]
Percent change from baseline evaluation for frequency of weekly RP attacks was and will be the primary efficacy endpoint. Frequency of weekly RP attacks is defined as the total number of RP attacks divided by the number of days with available diary data within the last 7 days of each dosing period then multiplied by 7. Total number of RP attacks during the last 7 days of screening period divided by the number of days with available data then multiplied by 7 will be used as baseline for the analysis of all periods.

[1] = Cilnidipine 10 mg, n=1, Excluding Outliers
[2] = Cilnidipine 10 mg, n=1, by Baseline RCS, first block (RCS <5.0)
[3] = Cilnidipine 20 mg, n=2, Excluding Outliers
[4] = Cilnidipine 20 mg, n=2, by Baseline RCS, first block (RCS <5.0)
[5] = Pooled Cilnidipine 10 mg and Cilnidipine 10 mg + Tadalafil 5 mg, n=1, by Baseline RCS, second block (RCS >5.0)
[6] = Pooled Cilnidipine 10 mg and Cilnidipine 10 mg + Tadalafil 5 mg, n=2, by Baseline RCS, first block (RCS <5.0)
[7] = Pooled Cilnidipine 10 mg and Cilnidipine 10 mg + Tadalafil 5 mg, n=3
[8] = Pooled Cilnidipine 10 mg and Cilnidipine 10 mg + Tadalafil 5 mg, n=3, Excluding Outliers
[9] = Pooled Cilnidipine 10 mg and Cilnidipine 10 mg + Tadalafil 5 mg, n=1, excluding outliers, second Baseline RCS subgroup, last 7 days of dosing
[10] = Pooled Cilnidipine 10 mg and Cilnidipine 10 mg + Tadalafil 5 mg, n=2, excluding outliers, first Baseline RCS subgroup, last 7 days of dosing
[11] = Pooled Cilnidipine 20 mg and Cilnidipine 20 mg + Tadalafil 5 mg, n=1, by Baseline RCS, second block (RCS >5.0)
[12] = Pooled Cilnidipine 20 mg and Cilnidipine 20 mg + Tadalafil 5 mg, n=3, by Baseline RCS, first block (RCS <5.0)
[13] = Pooled Cilnidipine 20 mg and Cilnidipine 20 mg + Tadalafil 5 mg, n=4
[14] = Pooled Cilnidipine 20 mg and Cilnidipine 20 mg + Tadalafil 5 mg, n=4, Excluding Outliers
[15] = Pooled Cilnidipine 20 mg and Cilnidipine 20 mg + Tadalafil 5 mg, n=1, excluding outliers, second Baseline RCS subgroup, last 7 days of dosing
[16] = Pooled Cilnidipine 20 mg and Cilnidipine 20 mg + Tadalafil 5 mg, n=3, excluding outliers, first Baseline RCS subgroup, last 7 days of dosing
[17] = Pooled Cilnidipine (10 or 20 mg), n=3
[18] = Pooled Cilnidipine (10 or 20 mg), n=3, Excluding Outliers
[19] = Pooled Cilnidipine (10 or 20 mg), n=3, by Baseline RCS, first block (RCS <5.0)
[20] = Pooled Cilnidipine arms, n=3, excluding outliers, first Baseline RCS subgroup, last 7 days of dosing
[21] = cilnidipine 10 mg daily, n=1, excluding outliers, first Baseline RCS subgroup, last 7 days of dosing
[22] = cilnidipine 20 mg daily, n=2, excluding outliers, first Baseline RCS subgroup, last 7 days of dosing

COCCOC(=O)C1=C(C)NC(C)=C(C(=O)OC/C=C/c2ccccc2)C1c1cccc([N+](=O)[O-])c1 (centres unmarked) [Cilnidipine]
Weekly Symptomatic RP Attacks Change from Baseline, Mean (Cilnidipine 10 mg, n=1): −7.00 | Weekly Symptomatic RP Attacks Change from Baseline, Median (Cilnidipine 10 mg, n=1): −7.00 | Weekly Symptomatic RP Attacks Percent Change from Baseline, Mean (Cilnidipine 10 mg, n=1): −33.33% | Weekly Symptomatic RP Attacks Percent Change from Baseline, Median (Cilnidipine 10 mg, n=1): −33.33% | Weekly Symptomatic RP Attacks, Mean (Cilnidipine 10 mg, n=1): 14.00 | Weekly Symptomatic RP Attacks, Median (Cilnidipine 10 mg, n=1): 14.00 | Weekly Symptomatic RP Attacks Change from Baseline, Mean [1]: −7.00 | Weekly Symptomatic RP Attacks Change from Baseline, Median [1]: −7.00 | Weekly Symptomatic RP Attacks Percent Change from Baseline, Mean [1]: −33.33% | Weekly Symptomatic RP Attacks Percent Change from Baseline, Median [1]: −33.33% | Weekly Symptomatic RP Attacks, Mean [1]: 14.00 | Weekly Symptomatic RP Attacks, Median [1]: 14.00 | Weekly Symptomatic RP Attacks Change from Baseline, Mean [2]: −7.00 | Weekly Symptomatic RP Attacks Change from Baseline, Median [2]: −7.00 | Weekly Symptomatic RP Attacks Percent Change from Baseline, Mean [2]: −33.33% | Weekly Symptomatic RP Attacks Percent Change from Baseline, Median [2]: −33.33% | Weekly Symptomatic RP Attacks, Mean [2]: 14.00 | Weekly Symptomatic RP Attacks, Median [2]: 14.00 | Weekly Symptomatic RP Attacks Change from Baseline, Mean (Cilnidipine 20 mg, n=2): −4.50 | Weekly Symptomatic RP Attacks Change from Baseline, Median (Cilnidipine 20 mg, n=2): −4.50 | Weekly Symptomatic RP Attacks Percent Change from Baseline, Mean (Cilnidipine 20 mg, n=2): −33.73% | Weekly Symptomatic RP Attacks Percent Change from Baseline, Median (Cilnidipine 20 mg, n=2): −33.73% | Weekly Symptomatic RP Attacks, Mean (Cilnidipine 20 mg, n=2): 8.00 | Weekly Symptomatic RP Attacks, Median (Cilnidipine 20 mg, n=2): 8.00 | Weekly Symptomatic RP Attacks Change from Baseline, Mean [3]: −4.50 | Weekly Symptomatic RP Attacks Change from Baseline, Median [3]: −4.50 | Weekly Symptomatic RP Attacks Percent Change from Baseline, Median [3]: −33.73% | Weekly Symptomatic RP Attacks, Mean [3]: 8.00 | Weekly Symptomatic RP Attacks, Median [3]: 8.00 | Weekly Symptomatic RP Attacks Change from Baseline, Mean [4]: −4.50 | Weekly Symptomatic RP Attacks Change from Baseline, Median [4]: −4.50 | Weekly Symptomatic RP Attacks Percent Change from Baseline, Mean [4]: −33.73% | Weekly Symptomatic RP Attacks Percent Change from Baseline, Median [4]: −33.73% | Weekly Symptomatic RP Attacks, Mean [4]: 8.00 | Weekly Symptomatic RP Attacks, Median [4]: 8.00 | Weekly Symptomatic RP Attacks Change from Baseline, Mean [5]: −3.00 | Weekly Symptomatic RP Attacks Change from Baseline, Median [5]: −3.00 | Weekly Symptomatic RP Attacks Percent Change from Baseline, Mean [5]: −42.86% | Weekly Symptomatic RP Attacks Percent Change from Baseline, Median [5]: −42.86% | Weekly Symptomatic RP Attacks, Mean [5]: 4.00 | Weekly Symptomatic RP Attacks, Median [5]: 4.00 | Weekly Symptomatic RP Attacks Change from Baseline, Mean [6]: −5.50 | Weekly Symptomatic RP Attacks Change from Baseline, Median [6]: −5.50 | Weekly Symptomatic RP Attacks Percent Change from Baseline, Mean [6]: −38.89% | Weekly Symptomatic RP Attacks Percent Change from Baseline, Median [6]: −38.89% | Weekly Symptomatic RP Attacks, Mean [6]: 9.50 | Weekly Symptomatic RP Attacks, Median [6]: 9.50 | Weekly Symptomatic RP Attacks Change from Baseline, Mean [7]: −4.67 | Weekly Symptomatic RP Attacks Change from Baseline, Median [7]: −4.00 | Weekly Symptomatic RP Attacks Percent Change from Baseline, Mean [7]: −40.21% | Weekly Symptomatic RP Attacks Percent Change from Baseline, Median [7]: −42.86% | Weekly Symptomatic RP Attacks, Mean [7]: 7.67 | Weekly Symptomatic RP Attacks, Median [7]: 5.00 | Weekly Symptomatic RP Attacks Change from Baseline, Mean [8]: −4.67 | Weekly Symptomatic RP Attacks Change from Baseline, Median [8]: −4.00 | Weekly Symptomatic RP Attacks Percent Change from Baseline, Mean [8]: −40.21% | Weekly Symptomatic RP Attacks Percent Change from Baseline, Median [8]: −42.86% | Weekly Symptomatic RP Attacks, Mean [8]: 7.67 | Weekly Symptomatic RP Attacks, Median [8]: 5.00 | Weekly Symptomatic RP Attacks Change from Baseline, Mean [9]: −3.00 | Weekly Symptomatic RP Attacks Change from Baseline, Median [9]: −3.00 | Weekly Symptomatic RP Attacks Percent Change from Baseline, Mean [9]: −42.86% | Weekly Symptomatic RP Attacks Percent Change from Baseline, Median [9]: −42.86% | Weekly Symptomatic RP Attacks, Mean [9]: 4.00 | Weekly Symptomatic RP Attacks, Median [9]: 4.00 | Weekly Symptomatic RP Attacks Change from Baseline, Mean [10]: −5.50 | Weekly Symptomatic RP Attacks Change from Baseline, Median [10]: −5.50 | Weekly Symptomatic RP Attacks Percent Change from Baseline, Mean [10]: −38.89% | Weekly Symptomatic RP Attacks Percent Change from Baseline, Median [10]: −38.89% | Weekly Symptomatic RP Attacks, Mean [10]: 9.50 | Weekly Symptomatic RP Attacks, Median [10]: 9.50 | Weekly Symptomatic RP Attacks Change from Baseline, Mean [11]: −0.50 | Weekly Symptomatic RP Attacks Change from Baseline, Median [11]: −0.50 | Weekly Symptomatic RP Attacks Percent Change from Baseline, Mean [11]: −4.76% | Weekly Symptomatic RP Attacks Percent Change from Baseline, Median [11]: −4.76% | Weekly Symptomatic RP Attacks, Mean [11]: 10.00 | Weekly Symptomatic RP Attacks, Median [11]: 10.00 | Weekly Symptomatic RP Attacks Change from Baseline, Mean [12]: −4.67 | Weekly Symptomatic RP Attacks Change from Baseline, Median [12]: −5.00 | Weekly Symptomatic RP Attacks Percent Change from Baseline, Mean [12]: −31.75% | Weekly Symptomatic RP Attacks Percent Change from Baseline, Median [12]: −28.57% | Weekly Symptomatic RP Attacks, Mean [12]: 9.67 | Weekly Symptomatic RP Attacks, Median [12]: 11.00 | Weekly Symptomatic RP Attacks Change from Baseline, Mean [13]: −3.63 | Weekly Symptomatic RP Attacks Change from Baseline, Median [13]: −3.50 | Weekly Symptomatic RP Attacks Percent Change from Baseline, Mean [13]: −25.00% | Weekly Symptomatic RP Attacks Percent Change from Baseline, Median [13]: −28.17% | Weekly Symptomatic RP Attacks, Mean [13]: 9.75 | Weekly Symptomatic RP Attacks, Median [13]: 10.50 | Weekly Symptomatic RP Attacks Change from Baseline, Mean [14]: −3.63 | Weekly Symptomatic RP Attacks Change from Baseline, Median [14]: −3.50 | Weekly Symptomatic RP Attacks Percent Change from Baseline, Mean [14]: −25.00% | Weekly Symptomatic RP Attacks Percent Change from Baseline, Median [14]: −28.17% | Weekly Symptomatic RP Attacks, Mean [14]: 9.75 | Weekly Symptomatic RP Attacks, Median [14]: 10.50 | Weekly Symptomatic RP Attacks Change from Baseline, Mean [15]: −0.50 | Weekly Symptomatic RP Attacks Change from Baseline, Median [15]: −0.50 | Weekly Symptomatic RP Attacks Percent Change from Baseline, Mean [15]: −4.76% | Weekly Symptomatic RP Attacks Percent Change from Baseline, Median [15]: −4.76% | Weekly Symptomatic RP Attacks, Mean [15]: 10.00 | Weekly Symptomatic RP Attacks, Median [15]: 10.00 | Weekly Symptomatic RP Attacks Change from Baseline, Mean [16]: −4.67 | Weekly Symptomatic RP Attacks Change from Baseline, Median [16]: −5.00 | Weekly Symptomatic RP Attacks Percent Change from Baseline, Mean [16]: −31.75% | Weekly Symptomatic RP Attacks Percent Change from Baseline, Median [16]: −28.57% | Weekly Symptomatic RP Attacks, Mean [16]: 9.67 | Weekly Symptomatic RP Attacks, Median [16]: 11.00 | Weekly Symptomatic RP Attacks Change from Baseline, Mean [17]: −5.33 | Weekly Symptomatic RP Attacks Change from Baseline, Median [17]: −7.00 | Weekly Symptomatic RP Attacks Percent Change from Baseline, Mean [17]: −33.60% | Weekly Symptomatic RP Attacks Percent Change from Baseline, Median [17]: −33.33% | Weekly Symptomatic RP Attacks, Mean [17]: 10.00 | Weekly Symptomatic RP Attacks, Median [17]: 11.00 | Weekly Symptomatic RP Attacks Change from Baseline, Mean [18]: −5.33 | Weekly Symptomatic RP Attacks Change from Baseline, Median [18]: −7.00 | Weekly Symptomatic RP Attacks Percent Change from Baseline, Mean [18]: −33.60% | Weekly Symptomatic RP Attacks Percent Change from Baseline, Median [18]: −33.33% | Weekly Symptomatic RP Attacks, Mean [18]: 10.00 | Weekly Symptomatic RP Attacks, Median [18]: 11.00 | Weekly Symptomatic RP Attacks Change from Baseline, Mean [19]: −5.33 | Weekly Symptomatic RP Attacks Change from Baseline, Median [19]: −7.00 | Weekly Symptomatic RP Attacks Percent Change from Baseline, Mean [19]: −33.60% | Weekly Symptomatic RP Attacks Percent Change from Baseline, Median [19]: −33.33% | Weekly Symptomatic RP Attacks, Mean [19]: 10.00 | Weekly Symptomatic RP Attacks, Median [19]: 11.00 | Weekly Symptomatic RP Attacks Change from Baseline, Mean [20]: −5.33 | Weekly Symptomatic RP Attacks Change from Baseline, Median [20]: −7.00 | Weekly Symptomatic RP Attacks Percent Change from Baseline, Mean [20]: −33.60% | Weekly Symptomatic RP Attacks Percent Change from Baseline, Median [20]: −33.33% | Weekly Symptomatic RP Attacks, Mean [20]: 10.00 | Weekly Symptomatic RP Attacks, Median [20]: 11.00 | Weekly Symptomatic RP Attacks Change from Baseline, Mean [21]: −7.00 | Weekly Symptomatic RP Attacks Change from Baseline, Median [21]: −7.00 | Weekly Symptomatic RP Attacks Percent Change from Baseline, Mean [21]: −33.33% | Weekly Symptomatic RP Attacks Percent Change from Baseline, Median [21]: −33.33% | Weekly Symptomatic RP Attacks, Mean [21]: 14.00 | Weekly Symptomatic RP Attacks, Median [21]: 14.00 | Weekly Symptomatic RP Attacks Change from Baseline, Mean [22]: −4.50 | Weekly Symptomatic RP Attacks Change from Baseline, Median [22]: −4.50 | Weekly Symptomatic RP Attacks Percent Change from Baseline, Mean [22]: −33.73% | Weekly Symptomatic RP Attacks Percent Change from Baseline, Median [22]: −33.73% | Weekly Symptomatic RP Attacks, Mean [22]: 8.00 | Weekly Symptomatic RP Attacks, Median [22]: 8.00
